Experimental findings from patent publication US11230545B2, “Heterocyclic compound” (Takeda Pharmaceutical Company Limited, priority 2018, dated 2022) are described below.

One test has as its system OCI-Ly3 cells. Nature of the test: Measurement of growth inhibitory activity using OCI-Ly3 cells. It is filed as cell-based. Conditions: Homo sapiens, 144 h, 3 μm compound, 6 days, read-out: Cell growth inhibition rate (%) at 3 μm compound. As to the method: OCI-Ly3 cells were seeded in a cell culture medium IMDM (Fujifilm Wako Pure Chemical Corporation) containing 20% FCS (fetal calf serum, Thermo Fisher Scientific) and monothioglycerol (Fujifilm Wako Pure Chemical Corporation) so as to be at 1.25×10^3 cells/well on a 96-well plate. Cell Titer-Glo solution (Promega) was added to cells to which the test compound had not been added, followed by stirring at room temperature for 15 minutes. Subsequently, the luminescence value was measured with Envision (PerkinElmer) on the day of seeding. Cells to which the test compound dissolved in dimethyl sulfoxide (Fujifilm Wako Pure Chemical Corporation) had been added were allowed to stand in a CO2 incubator (37° C.) for 6 days. Subsequently, the luminescence value was measured in the same manner. The inhibition rate (%) of the test compound on OCI-Ly3 cell growth was calculated by the following formula. Cell growth inhibition rate (%)=(1−(Luminescent value on day 6 of test compound treatment−Luminescent value before test compound treatment)/(Luminescent value on day 6 without compound addition−Luminescent value before compound treatment))×100

A further test deals with T1, recombinant human MALT1 (Homo sapiens, UniProt Q9UDY8).
T1 construct: to form a human MALT1 (340-789aa) dimer; His tag (from pET28a, N-terminal) (N); yeast GCN4 leucine zipper (251-281aa), fusion partner for dimerisation (N); translates to GSGSGS), between GCN4 zipper and MALT1 (N); His tag (C-terminal) (C); made in house; host or cells: E. coli BL21 (DE3)
T1 sequence (Q9UDY8 340-789): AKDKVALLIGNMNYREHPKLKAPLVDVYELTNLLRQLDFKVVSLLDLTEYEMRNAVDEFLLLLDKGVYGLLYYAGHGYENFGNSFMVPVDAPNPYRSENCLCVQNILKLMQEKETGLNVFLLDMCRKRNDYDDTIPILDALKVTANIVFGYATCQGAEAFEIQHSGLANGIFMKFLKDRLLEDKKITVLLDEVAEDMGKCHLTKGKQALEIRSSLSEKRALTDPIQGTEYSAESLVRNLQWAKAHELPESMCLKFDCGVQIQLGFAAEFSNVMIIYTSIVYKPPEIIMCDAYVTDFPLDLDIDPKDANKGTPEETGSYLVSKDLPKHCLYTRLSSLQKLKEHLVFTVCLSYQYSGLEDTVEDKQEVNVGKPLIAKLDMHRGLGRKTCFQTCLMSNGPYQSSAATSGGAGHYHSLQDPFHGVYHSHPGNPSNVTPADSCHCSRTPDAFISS
T1 sequence (P03069 251-281 partner limits assumed): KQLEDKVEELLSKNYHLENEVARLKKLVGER
Description: Measurement of MALT1 enzyme inhibitory activity. It is filed as biochemical. The conditions noted are these: read-out: MALT1 enzyme inhibition rate (%) at 3 μM compound. The procedure:
On the human MALT1 gene, PCR was carried out using GC-030-[…] (pENTR221/MALT1, GeneCopoeia) as a template with primers having BamH I restriction enzyme at the N-terminal and Not I restriction enzyme at the C-terminal to form a human MALT1 (340-789aa) dimer. […] Both of the obtained fragments were treated with the restriction enzymes, and inserted between Nde I and Not I of a pET28a (Novagen) vector to yield a recombinant human MALT1 protein expression vector pET28a/His-LZ-hMALT1v1 (340-789)-His. The recombinant human MALT1 protein was prepared by transforming the expression plasmid prepared as above with ECOS Competent E. coli BL21 (DE3) (Nippon Gene Co., Ltd.). Escherichia coli obtained by transformation was inoculated into 300 mL of LB medium (1% tryptone, 0.5% yeast extract, 0.5% sodium chloride, 0.01% ampicillin) and cultured at 30° C. for 16 hours. […] Furthermore, culturing was carried out for 16 hours to induce expression of human MALT1 protein. After completion of the culture, the culture solution was centrifuged at 5,000 rpm for 10 minutes. […] This crushed liquid was centrifuged (15,300×G, 30 min, TOMY MX-301), and the obtained supernatant was passed through and adsorbed to a Ni-NTA Superflow (QIAGEN) column previously equilibrated with 50 mM Tris-HCl pH 8.0, 300 mM NaCl, 5 mM DTT and 10% glycerol, followed by elution in a buffer containing 50 mM Tris-HCl pH 8.0, 300 mM NaCl, 5 mM DTT, 10% glycerol and 250 mM imidazole. […] The prepared protein was stored at -30° C., and the protein concentration was measured with a BCA Protein Assay Kit (PIERCE) using BSA as a standard. […] Subsequently, 2 μL of a purified recombinant human MALT1 enzyme solution was added, followed by incubation for 60 minutes at room temperature. To the mixture were added 2 μL of a substrate solution (75 μM Ac-LRSR-AFC (SM Biochemicals), 20 mM HEPES (Dojin Laboratories), 10 mM KCl (Wako Pure Chemical Industries, Ltd.), 1.5 mM MgCl2 (Sigma-Aldrich), 1 mM EDTA (pH 8.0) (Nippon Gene Co., Ltd.), 0.01% Triton X-100 (Sigma-Aldrich) and 1 mM DTT (Wako Pure Chemical Industries, Ltd.), followed by incubation for 60 minutes at room temperature. The fluorescence values of excitation 400 nm and emission 485 nm immediately after substrate addition and after enzymatic reaction were measured with a plate reader Envision (PerkinElmer), and the fluorescence values increased by enzymatic reaction were used for calculation of the inhibition rate (%).

In test [1] the test system is Human diffuse large-cell B-cell lymphoma cells OCI-Ly3. Description: Antitumor effect on OCI-Ly3 cell-bearing cancer model. The conditions noted are these: average tumor volume increase ratio; 10 mg/kg orally twice daily for 3 weeks; NOG female mice, OCI-Ly3 subcutaneous. It is filed as in vivo. As to the method:
Human diffuse large-cell B-cell lymphoma cells OCI-Ly3 (DSMZ, German Collection of Microorganisms and Cell Cultures) were suspended in a Matrigel (BD Biosciences):HBSS (Thermo Fisher Scientific)=1:1 solution, and 1×10^7 cells were transplanted subcutaneously into the abdomen of NOG female mice (CLEA Japan, Inc.). The tumor diameter of the engrafted tumor was measured, and the tumor volume was calculated by the following formula. Tumor volume=major axis×minor axis×minor axis×(½)
Individuals with the engrafted tumor having a tumor volume of about 120 mm^3 were selected, and 6 animals per group were used in the experiment. A suspension of the test compound in 0.5% methylcellulose solution (Fujifilm Wako Pure Chemical Corporation) was orally administered at a dose of 10 mg/kg (10 mL/kg) twice daily for 3 weeks. The tumor volume was measured on the day before the start of administration and every 3 to 4 days over time, and the tumor diameter was finally measured the day after the end of administration for 21 days to calculate the tumor volume. The tumor growth of the test compound-administered group compared with the control-administered group was calculated by the following formula as an average tumor volume increase ratio T/C. T/C=((Tumor volume after the end of administration for the test compound-administered group−Tumor volume of the day before the start of administration for the test compound-administered group)/(Tumor volume after the end of administration for the control-administered group−Tumor volume of the day before the start of administration for the control-administered group))×100

A word on the inhibition: it is the drop in the measured response relative to a control, in per cent. For `CO[C@@H](C)c1c(NC(=O)Nc2cnc(OC(F)F)c(Cl)c2)cnn2cc(C)nc12` [Example 1, (S)—N-(5-Chloro-6-(difluoromethoxy)pyridin-3-yl)-N′-(8-(1-methoxyethyl)-2-methylimidazo[1,2-b]pyridazin-7-yl)urea], the figures for the inhibition at 3 µM in the test with OCI-Ly3 cells and on recombinant human MALT1 were 96% and 104%, respectively. The “T/C (%)” value in test [1] was found to be 13.4%.

For `CO[C@@H](C)c1c(NC(=O)Nc2cnc(-n3nccn3)c(C(F)(F)F)c2)cnc2ccc(Cl)nc12` [Example 2, (S)—N-(6-Chloro-4-(1-methoxyethyl)-1,5-naphthyridin-3-yl)-N′-(6-(2H-1,2,3-triazol-2-yl)-5-(trifluoromethyl)pyridin-3-yl)urea], the inhibition at 3 µM with OCI-Ly3 cells came to 97%; on recombinant human MALT1 it was 99%. Also, in test [1], the “T/C (%)” value worked out at 2.0%.

`CO[C@@H](C)c1c(NC(=O)Nc2cnc(-n3nccn3)c(C(F)(F)F)c2)cnc2ccc(C)nc12` [Example 3, (S)—N-(4-(1-Methoxyethyl)-6-methyl-1,5-naphthyridin-3-yl)-N′-(6-(2H-1,2,3-triazol-2-yl)-5-(trifluoromethyl)pyridin-3-yl)urea]: the inhibition at 3 µM with OCI-Ly3 cells stood at 99%; on recombinant human MALT1, 101%. In test [1], the “T/C (%)” value came to 38.7%.

For `CO[C@@H](C)c1c(NC(=O)Nc2cnc(-n3nccn3)c(Cl)c2)cnn2cc(C)nc12` [Example 4, (S)—N-(5-Chloro-6-(2H-1,2,3-triazol-2-yl)pyridin-3-yl)-N′-(8-(1-methoxyethyl)-2-methylimidazo[1,2-b]pyridazin-7-yl)urea], the figures for the inhibition at 3 µM in the test with OCI-Ly3 cells and on recombinant human MALT1 were 97% and 111%, respectively. Also, the “T/C (%)” value in test [1] amounted to 43.3%.
